Experiments:
[1] = test system: C. albicans; parameters: method as in PMID 22934533; details: 80 µM curcumin, 37.5 J/cm^2; mouse model of oral candidiasis; cited from earlier work
[2] = test system: WM266-4 melanoma cell line; parameters: method as in Siwak et al. 49; details: after 96 h of incubation; ref Siwak et al. 49; cited from earlier work
[3] = test system: S. aureus; details: 10 µM; 440 nm; 1.944 J/cm^2; 3.6 mW/cm^2; 8.8 min; cited from earlier work

For Curcumin [reference compound], the “reduction in the survival of C. albicans” value [1] is listed as 4 log, the IC50 [2] is listed as ~7 µM and the “Efficiency (log reduction)” value [3] is listed as 5.3 log.

Molecule `F[B-]1(F)OC(/C=C/c2ccc(OCCN3CCOCC3)cc2)=CC(/C=C/c2ccc(OCCN3CCOCC3)cc2)=[O+]1` [Compound 2] has a melting point of 170 to 173 °C.

Reference: paper PMC11478334, “Quaternized Curcumin Derivative—Synthesis, Physicochemical Characteristics, and Photocytotoxicity, Including Antibacterial Activity after Irradiation with Blue Light” (Molecules, 2024)
